Results taken from patent publication US20260124184A1, “ONCE DAILY ALDOSTERONE SYNTHASE INHIBITOR (R)-(+)-5-(P-CYANOPHENYL)-5,6,7,8-TETRAHYDROIMIDAZO[L,5-A]PYRIDINE” (priority 2022, published 2026).
Read-outs that look alike come from different tables or passages of the source.

Experiments:
[1] = tested on: patients with primary aldosteronism
Method: (§1) A double-blind, randomized, Phase 2 trial was conducted between November 2019 and June 2022 at 11 centres in Italy, Switzerland and the Netherlands (NCT04007406). […] Patients requiring fixed-dose antihypertensive therapy continued treatment throughout the study; steroid therapies, β-adrenergic and renin-angiotensin-aldosterone system blockers were not permitted. At 14-day intervals, office blood pressures were recorded and blood samples were taken for measurement of steroid and peptide hormones and electrolytes at a central laboratory.
A centrally calibrated and validated device (Spacelab Healthcare) was used; the device was fitted at the hospital outpatient department by medically qualified staff on day −1 and day 55 prior to supervised drug intake by the patient. The light digital monitor with convenient carry pouches takes the blood pressure reading at regular intervals by inflating and subsequently deflating customized cuffs placed around the non-dominant upper arm for 24-hour recording of about 70 readings. Patients followed their regular routines yet refrained from exercising or taking a bath or shower. In addition, to assure proper measurements, the patient was asked to sit down prior to reading, keep the cuff at the same level as the heart and rest the arm steady. The patient was also asked to keep a diary on activities, meals and sleep to document what he/she was doing just before the reading was taken. At the end of the 24-hour period, the patient was able to remove the monitor and cuff, shower or bathe and return the device to the Investigator at the clinic. The machine stored all readings as source data that were uploaded in the eCRF.
For all efficacy endpoints, changes from baseline were calculated from linear models and accompanied by 95% confidence intervals and p values. Log-transformed values were used for changes in ARR. The full analysis set (FAS) and safety set were defined as all randomized patients who received at least one dose of study drug.

[2] = tested on: patients with primary aldosteronism; remark: listed apart in the source
Method: as §1
Plasma aldosterone and plasma renin concentration were measured centrally under GCP regulations using the Liaison® chemiluminescent immunoassay kit supplied by DiaSorin S.p.A. Italy. The system used specific monoclonal antibodies to prevent cross reactions with other major potential reactants in the serum samples. The monoclonal antibodies directed against specific epitopes of the renin molecule allowed accurate and sensitive quantification. The assays were performed according to the instructions provided by the manufacturer. […] The analytical sensitivity was <0.97 ng/ml. […] The analytical sensitivity was <0.53 IU/mL.

[3] = all doses combined, n=35, Day 1 (baseline)
[4] = all doses combined, n=35, Day 56

Substance: (R)-(+)-5-(p-cyanophenyl)-5,6,7,8-tetrahydroimidazolium[1,5-a]pyridine dihydrogen phosphate [dexfadrostat phosphate]
- change in aSBP from baseline to Day 56, median ([1]; all doses combined, n=35): −12.23 mmHg
- 24-hour ambulatory SBP (aSBP), mean [1, 3]: 142.62 mmHg
- 24-hour ambulatory SBP (aSBP), median [1, 3]: 143.4 mmHg
- 24-hour ambulatory SBP (aSBP), mean [1, 4]: 131.87 mmHg
- 24-hour ambulatory SBP (aSBP), median [1, 4]: 130.41 mmHg
- LSM change in 24-hour aSBP from baseline ([1]; all patients, Day 1 to Day 56, FIG. 2B, p<0.0001): −10.7 mmHg
- effect on 24-hour aSBP ([1]; each dose arm, baseline to day 56): significant reduction (p<0.001) in 24-hour aSBP
- plasma aldosterone concentration, mean ([2]; baseline aldosterone 400-600 pmol/L, 4 mg QD, Day 1 (baseline)): 433 pmol/L
- plasma aldosterone concentration, mean ([2]; baseline aldosterone 400-600 pmol/L, 4 mg QD, Day 14): 155 pmol/L
- plasma aldosterone concentration, mean ([2]; baseline aldosterone 400-600 pmol/L, 4 mg QD, Day 28): 100 pmol/L
- plasma aldosterone concentration, mean ([2]; baseline aldosterone 400-600 pmol/L, 4 mg QD, Day 42): 117 pmol/L
- plasma aldosterone concentration, mean ([2]; baseline aldosterone 400-600 pmol/L, 4 mg QD, Day 56): 141 pmol/L
- plasma aldosterone concentration, mean ([2]; baseline aldosterone 400-600 pmol/L, 4 mg QD, Day 70 (placebo withdrawal)): 425 pmol/L
- plasma aldosterone concentration, mean ([2]; baseline aldosterone 400-600 pmol/L, 8 mg QD, Day 1 (baseline)): 404 pmol/L
- plasma aldosterone concentration, mean ([2]; baseline aldosterone 400-600 pmol/L, 8 mg QD, Day 14): 70 pmol/L
- plasma aldosterone concentration, mean ([2]; baseline aldosterone 400-600 pmol/L, 8 mg QD, Day 28): 70 pmol/L
- plasma aldosterone concentration, mean ([2]; baseline aldosterone 400-600 pmol/L, 8 mg QD, Day 42): 47 pmol/L
- plasma aldosterone concentration, mean ([2]; baseline aldosterone 400-600 pmol/L, 8 mg QD, Day 56): 58 pmol/L
- plasma aldosterone concentration, mean ([2]; baseline aldosterone 400-600 pmol/L, 8 mg QD, Day 70 (placebo withdrawal)): 300 pmol/L
- plasma aldosterone concentration, mean ([2]; baseline aldosterone 400-600 pmol/L, 12 mg QD, Day 1 (baseline)): 431 pmol/L
- plasma aldosterone concentration, mean ([2]; baseline aldosterone 400-600 pmol/L, 12 mg QD, Day 14): 63 pmol/L
- plasma aldosterone concentration, mean ([2]; baseline aldosterone 400-600 pmol/L, 12 mg QD, Day 28): 132 pmol/L
- plasma aldosterone concentration, mean ([2]; baseline aldosterone 400-600 pmol/L, 12 mg QD, Day 42): 142 pmol/L
- plasma aldosterone concentration, mean ([2]; baseline aldosterone 400-600 pmol/L, 12 mg QD, Day 56): 61 pmol/L
- plasma aldosterone concentration, mean ([2]; baseline aldosterone 400-600 pmol/L, 12 mg QD, Day 70 (placebo withdrawal)): 297 pmol/L
- plasma aldosterone concentration, mean ([2]; baseline aldosterone 600-1000 pmol/L, 4 mg QD, Day 1 (baseline)): 728 pmol/L
- plasma aldosterone concentration, mean ([2]; baseline aldosterone 600-1000 pmol/L, 4 mg QD, Day 14): 186 pmol/L
- plasma aldosterone concentration, mean ([2]; baseline aldosterone 600-1000 pmol/L, 4 mg QD, Day 28): 248 pmol/L
- plasma aldosterone concentration, mean ([2]; baseline aldosterone 600-1000 pmol/L, 4 mg QD, Day 42): 114 pmol/L
- plasma aldosterone concentration, mean ([2]; baseline aldosterone 600-1000 pmol/L, 4 mg QD, Day 56): 250 pmol/L
- plasma aldosterone concentration, mean ([2]; baseline aldosterone 600-1000 pmol/L, 4 mg QD, Day 70 (placebo withdrawal)): 325 pmol/L
- plasma aldosterone concentration, mean ([2]; baseline aldosterone 600-1000 pmol/L, 8 mg QD, Day 1 (baseline)): 805 pmol/L
- plasma aldosterone concentration, mean ([2]; baseline aldosterone 600-1000 pmol/L, 8 mg QD, Day 14): 83 pmol/L
- plasma aldosterone concentration, mean ([2]; baseline aldosterone 600-1000 pmol/L, 8 mg QD, Day 28): 120 pmol/L
- plasma aldosterone concentration, mean ([2]; baseline aldosterone 600-1000 pmol/L, 8 mg QD, Day 42): 123 pmol/L
- plasma aldosterone concentration, mean ([2]; baseline aldosterone 600-1000 pmol/L, 8 mg QD, Day 56): 131 pmol/L
- plasma aldosterone concentration, mean ([2]; baseline aldosterone 600-1000 pmol/L, 8 mg QD, Day 70 (placebo withdrawal)): 423 pmol/L
- plasma aldosterone concentration, mean ([2]; baseline aldosterone 600-1000 pmol/L, 12 mg QD, Day 1 (baseline)): 912 pmol/L
- plasma aldosterone concentration, mean ([2]; baseline aldosterone 600-1000 pmol/L, 12 mg QD, Day 14): 123 pmol/L
- plasma aldosterone concentration, mean ([2]; baseline aldosterone 600-1000 pmol/L, 12 mg QD, Day 28): 104 pmol/L
- plasma aldosterone concentration, mean ([2]; baseline aldosterone 600-1000 pmol/L, 12 mg QD, Day 42): 85 pmol/L
- plasma aldosterone concentration, mean ([2]; baseline aldosterone 600-1000 pmol/L, 12 mg QD, Day 56): 82 pmol/L
- plasma aldosterone concentration, mean ([2]; baseline aldosterone 600-1000 pmol/L, 12 mg QD, Day 70 (placebo withdrawal)): 466 pmol/L
- plasma aldosterone concentration, mean ([2]; baseline aldosterone 1000-2500 pmol/L, 4 mg QD, Day 1 (baseline)): 2005 pmol/L
- plasma aldosterone concentration, mean ([2]; baseline aldosterone 1000-2500 pmol/L, 4 mg QD, Day 14): 816 pmol/L
- plasma aldosterone concentration, mean ([2]; baseline aldosterone 1000-2500 pmol/L, 4 mg QD, Day 28): 531 pmol/L
- plasma aldosterone concentration, mean ([2]; baseline aldosterone 1000-2500 pmol/L, 4 mg QD, Day 42): 629 pmol/L
- plasma aldosterone concentration, mean ([2]; baseline aldosterone 1000-2500 pmol/L, 4 mg QD, Day 56): 589 pmol/L
- plasma aldosterone concentration, mean ([2]; baseline aldosterone 1000-2500 pmol/L, 4 mg QD, Day 70 (placebo withdrawal)): 1393 pmol/L
- plasma aldosterone concentration, mean ([2]; baseline aldosterone 1000-2500 pmol/L, 8 mg QD, Day 1 (baseline)): 1080 pmol/L
- plasma aldosterone concentration, mean ([2]; baseline aldosterone 1000-2500 pmol/L, 8 mg QD, Day 14): 27 pmol/L
- plasma aldosterone concentration, mean ([2]; baseline aldosterone 1000-2500 pmol/L, 8 mg QD, Day 28): 57 pmol/L
- plasma aldosterone concentration, mean ([2]; baseline aldosterone 1000-2500 pmol/L, 8 mg QD, Day 42): 27 pmol/L
- plasma aldosterone concentration, mean ([2]; baseline aldosterone 1000-2500 pmol/L, 8 mg QD, Day 56): 27 pmol/L
- plasma aldosterone concentration, mean ([2]; baseline aldosterone 1000-2500 pmol/L, 8 mg QD, Day 70 (placebo withdrawal)): 395 pmol/L
- plasma aldosterone concentration, mean ([2]; baseline aldosterone 1000-2500 pmol/L, 12 mg QD, Day 1 (baseline)): 1410 pmol/L
- plasma aldosterone concentration, mean ([2]; baseline aldosterone 1000-2500 pmol/L, 12 mg QD, Day 14): 111 pmol/L
- plasma aldosterone concentration, mean ([2]; baseline aldosterone 1000-2500 pmol/L, 12 mg QD, Day 28): 74 pmol/L
- plasma aldosterone concentration, mean ([2]; baseline aldosterone 1000-2500 pmol/L, 12 mg QD, Day 42): 71 pmol/L
- plasma aldosterone concentration, mean ([2]; baseline aldosterone 1000-2500 pmol/L, 12 mg QD, Day 56): 349 pmol/L
- plasma aldosterone concentration, mean ([2]; baseline aldosterone 1000-2500 pmol/L, 12 mg QD, Day 70 (placebo withdrawal)): 1264 pmol/L
